Some results are limits rather than exact numbers.

Broadly, the IC50 is the concentration needed to halve the response being measured. Low values mean higher potency, high ones lower potency.

In this experiment the target is H1047R PIK3CA enzyme (Homo sapiens, UniProt P42336, H1047R). The experiment is described as follows: ADP-Glo Biochemical PIK3CA Kinase Assay. (ADP-Glo first removes unused ATP, then detects ADP through luciferase.)
H1047R PIK3CA enzyme, sequence (P42336 whole entry H1047R): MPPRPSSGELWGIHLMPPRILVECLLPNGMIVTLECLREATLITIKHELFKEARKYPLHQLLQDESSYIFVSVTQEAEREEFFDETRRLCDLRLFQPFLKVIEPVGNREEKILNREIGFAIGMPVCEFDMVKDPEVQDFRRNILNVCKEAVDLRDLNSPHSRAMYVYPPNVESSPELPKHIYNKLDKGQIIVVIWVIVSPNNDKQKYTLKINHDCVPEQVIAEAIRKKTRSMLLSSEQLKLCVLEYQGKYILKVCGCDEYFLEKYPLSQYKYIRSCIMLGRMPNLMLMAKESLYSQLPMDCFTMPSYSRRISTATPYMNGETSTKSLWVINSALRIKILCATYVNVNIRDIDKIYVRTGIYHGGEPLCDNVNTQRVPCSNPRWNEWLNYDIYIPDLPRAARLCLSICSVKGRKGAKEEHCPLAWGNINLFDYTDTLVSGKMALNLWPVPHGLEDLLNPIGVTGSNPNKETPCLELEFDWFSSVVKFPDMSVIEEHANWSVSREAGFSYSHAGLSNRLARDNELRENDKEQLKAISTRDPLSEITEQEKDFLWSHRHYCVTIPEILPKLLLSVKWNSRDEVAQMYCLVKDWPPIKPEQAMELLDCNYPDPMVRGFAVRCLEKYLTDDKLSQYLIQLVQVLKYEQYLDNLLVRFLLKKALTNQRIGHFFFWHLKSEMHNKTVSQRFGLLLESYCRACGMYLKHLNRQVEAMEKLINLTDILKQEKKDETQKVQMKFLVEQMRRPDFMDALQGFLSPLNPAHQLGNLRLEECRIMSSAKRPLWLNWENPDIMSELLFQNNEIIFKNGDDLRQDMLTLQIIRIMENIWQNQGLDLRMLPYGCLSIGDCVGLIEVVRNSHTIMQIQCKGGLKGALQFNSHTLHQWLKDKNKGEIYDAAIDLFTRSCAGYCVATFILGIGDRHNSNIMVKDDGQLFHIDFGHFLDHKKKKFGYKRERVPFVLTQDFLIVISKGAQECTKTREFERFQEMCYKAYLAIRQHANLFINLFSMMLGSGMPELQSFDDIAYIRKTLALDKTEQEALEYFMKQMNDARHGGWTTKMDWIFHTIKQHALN
H1047R PIK3CA enzyme, sequence (P27986 whole entry partner): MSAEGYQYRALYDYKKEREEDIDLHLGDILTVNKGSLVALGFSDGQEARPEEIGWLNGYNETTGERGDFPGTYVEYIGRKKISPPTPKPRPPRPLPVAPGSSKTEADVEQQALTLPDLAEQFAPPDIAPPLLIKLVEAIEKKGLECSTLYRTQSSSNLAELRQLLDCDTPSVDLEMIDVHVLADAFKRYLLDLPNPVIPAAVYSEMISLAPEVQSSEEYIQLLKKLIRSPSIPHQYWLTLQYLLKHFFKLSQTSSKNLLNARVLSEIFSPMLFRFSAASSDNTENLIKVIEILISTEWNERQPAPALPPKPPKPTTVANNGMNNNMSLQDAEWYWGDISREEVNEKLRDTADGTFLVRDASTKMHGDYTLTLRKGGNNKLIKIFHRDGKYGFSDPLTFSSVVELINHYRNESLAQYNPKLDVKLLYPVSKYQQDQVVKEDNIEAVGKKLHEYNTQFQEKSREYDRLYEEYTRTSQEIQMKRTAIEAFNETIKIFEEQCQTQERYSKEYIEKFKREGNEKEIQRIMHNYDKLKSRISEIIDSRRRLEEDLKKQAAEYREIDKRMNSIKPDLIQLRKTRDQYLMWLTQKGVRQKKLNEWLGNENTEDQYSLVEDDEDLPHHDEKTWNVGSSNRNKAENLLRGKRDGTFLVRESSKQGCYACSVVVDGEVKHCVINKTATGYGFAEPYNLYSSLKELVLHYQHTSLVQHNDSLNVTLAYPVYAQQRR
The molecule `Cc1ccccc1C1NC(=O)c2cccc(NC(=O)c3nn(C)c4ccccc34)c21` (centres unmarked) [Compound I-17] gave an IC50 of 10 to 100 µM.

With `CN1CCCC[C@H]1C(=O)Nc1cc(-c2ccc3ncnn3c2)cc2c1[C@H](c1cc(F)ccc1Cl)NC2=O` (racemic) [Compound I-1948], the IC50 was 10 to 100 µM.

`O=C1NC(c2cc(F)ccc2Cl)c2c(NC(=O)c3cc(F)cc4cc[nH]c34)cccc21` (centres unmarked) [Compound I-646]: the IC50 was at most 0.1 µM.

For the molecule `Cc1ccccc1C1NC(=O)c2cc(NS(C)(=O)=O)cc(NC(=O)c3cc(F)cc(C(F)(F)F)c3)c21` (centres unmarked) [Compound I-56], the half-maximal inhibitory concentration (IC50) was 0.1 to 0.5 µM. For `CN1C[C@H](Nc2cc(NC(=O)c3cc(F)cc(C(F)(F)F)c3)c3c(c2)C(=O)NC3c2cc(F)ccc2Cl)CC1=O` (single isomer, unassigned) [Compound I-343] the value was at most 0.1 µM.

The molecule `O=C1NC(c2cc(F)ccc2F)c2c(NC(=O)c3csc4ccccc34)ccnc21` (centres unmarked) [Compound I-71] returned an IC50 of 0.5 to 1 µM. The same measure for `COc1ccc(C(=O)Nc2cc(Br)cc3c2C(c2cc(F)ccc2Cl)NC3=O)cc1C(F)(F)F` (centres unmarked) [Compound I-877]: 0.5 to 1 µM; for `O=C1NC(c2cc(F)ccc2Cl)c2c(NC(=O)N3CCCC(C(F)(F)F)C3)cc(Br)cc21` (mixture of isomers) [Compound I-432]: 0.5 to 1 µM.

As for `CN1CCN(C(=O)Nc2cc(Br)cc3c2C(c2cc(F)ccc2Cl)NC3=O)CC1(C)C` (racemic) [Compound I-685], the IC50 fell in the range of 10 to 100 µM. The molecule `O=C(Nc1cc(-c2ccccc2S(=O)(=O)F)cc2c1C(c1cc(F)ccc1Cl)NC2=O)c1cc(F)cc(C(F)(F)F)c1` (centres unmarked) [Compound I-1264] showed an IC50 of at most 0.1 µM.

With `O=C1NC(c2cc(F)ccc2Cl)c2c(NC(=O)N3CCCCC3)cc(-c3ccc4ncnn4c3)cc21` (centres unmarked) [Compound I-1663], the half-inhibitory concentration (IC50) was 1 to 10 µM.

With `Cc1ccccc1C1NC(=O)c2cc(Br)cc(NC(=O)c3cc(F)cc(C4CC4)c3)c21` (centres unmarked) [Compound I-534], the IC50 is 1 to 10 µM. `CC(F)c1cc(F)cc(C(=O)Nc2cc(Br)cc3c2C(c2cc(F)ccc2Cl)NC3=O)c1` (centres unmarked) [Compound I-1288] returned an IC50 of 0.1 to 0.5 µM.

For `O=C(Nc1cc(-c2cn[nH]c2)nc2c1[C@H](c1cc(F)ccc1Cl)NC2=O)c1cc(F)cc(Cl)c1` [Compound I-196], the IC50 was at most 0.1 µM. For `Cn1cc(-c2ccc(Cl)c(C3NC(=O)c4cccc(NC(=O)c5cc(F)cc(C(F)(F)F)c5)c43)c2)cn1` (centres unmarked) [Compound I-489] the value was 10 to 100 µM; for `O=C(Nc1cc(Br)cc2c1C(c1ccccc1Cl)NC2=O)c1cc(F)cc(C(F)(F)F)c1` (centres unmarked) [Compound I-394], 0.1 to 0.5 µM. `Cc1ccc(C(=O)Nc2cc(-c3ccc4ncnn4c3)cc3c2[C@@H](c2cc(F)ccc2Cl)NC3=O)cc1C(F)(F)F` (stereo in doubt) [Compound I-1168]: the IC50 lay within 10 to 100 µM. Molecule `COc1ccc(-c2cc(NC(=O)c3cc(F)cc(C(F)(F)F)c3)c3c(c2)C(=O)NC3c2cc(F)ccc2Cl)cn1` (centres unmarked) [Compound I-705] gave an IC50 of at most 0.1 µM. For `O=C1NC(c2cc(F)ccc2Cl)c2c(NC(=O)c3[nH]nnc3CC(F)(F)F)cccc21` (centres unmarked) [Compound I-2194] the value was 10 to 100 µM.

Consider `CC(C(CO)CC(=O)Nc1cccc2c1C(c1cc(F)ccc1Cl)NC2=O)C(F)(F)F` (mixture of isomers) [Compound I-2197], for which the IC50 lay in the range of 10 to 100 µM. The same measure for `O=C1CCc2cc(F)cc(C(=O)Nc3cccc4c3C(c3cc(F)ccc3Cl)NC4=O)c2N1` (centres unmarked) [Compound I-1545]: 10 to 100 µM; for `O=C(Nc1cc(N2CCC(F)(F)CC2)nc2c1C(c1cc(F)ccc1Cl)NC2=O)c1cc(F)cc(C(F)(F)F)c1` (centres unmarked) [Compound I-539]: at most 0.1 µM; for `O=C(Nc1cc(N2CC(O)C2)nc2c1C(c1cc(F)ccc1Cl)NC2=O)c1cc(F)cc(C(F)(F)F)c1` (centres unmarked) [Compound I-575]: at most 0.1 µM.

Consider `CC1(C)CC1C1NC(=O)c2cccc(NC(=O)c3cc(F)cc(C(F)(F)F)c3)c21` (centres unmarked) [Compound I-1766], for which the IC50 is 1 to 10 µM. The molecule `O=C(Nc1cccc2c1C(c1ccccc1C1COC1)NC2=O)c1cc(F)cc(C(F)(F)F)c1` (centres unmarked) [Compound I-907] came in with an IC50 of 10 to 100 µM. The same measure for `Cn1cc(C#Cc2cc(NC(=O)c3cc(F)cc(C(F)(F)F)c3)c3c(c2)C(=O)NC3c2cc(F)ccc2Cl)cn1` (centres unmarked) [Compound I-1155]: at most 0.1 µM. For `O=C1NC(c2cc(F)ccc2Cl)c2c(NC(=O)C3CCCC3C(F)F)cc(Br)cc21` (centres unmarked) [Compound I-1621] the value was 10 to 100 µM. `O=C1NC(c2cc(F)ccc2Cl)c2c1cccc2-n1cnc2ccccc2c1=O` (centres unmarked) [Compound I-1516]: the IC50 fell in the range of 10 to 100 µM. In turn, `O=C(Nc1cc(-c2ccc3ncnn3c2)c(-c2ccc3ncnn3c2)c2c1C(c1cc(F)ccc1Cl)NC2=O)c1cc(F)cc(C(F)(F)F)c1` (centres unmarked) [Compound I-1802] showed an IC50 of 0.1 to 0.5 µM. As for `Cc1ccccc1C1NC(=O)c2cc(C3(O)CC3)cc(NC(=O)c3nsc4ccccc34)c21` (centres unmarked) [Compound I-315, N-[6-(1-hydroxycyclopropyl)-3-(2-methylphenyl)-1-oxo-2,3-dihydro-1H-isoindol-4-yl]-1,2-benzothiazole-3-carboxamide], the IC50 was at most 0.1 µM. For `N#CCc1ccc(NC(=O)N2C[C@](O)(C(F)(F)F)c3cc(F)ccc32)c2c1C(=O)N[C@@H]2c1cc(F)ccc1Cl` (single isomer, unassigned) [Compound I-2615] the value was 1 to 10 µM; for `O=C1N[C@H](c2ccccc2Cl)c2c(NC(=O)N3C[C@](O)(C(F)(F)F)c4cc(F)ccc43)cccc21` (single isomer, unassigned) [Compound I-2687], 1 to 10 µM. As for `O=C1NC(c2ccccc2C(F)(F)F)c2c(NC(=O)c3nsc4ccccc34)cccc21` (centres unmarked) [Compound I-221], the IC50 was 10 to 100 µM. For `COc1ccc2c(C(=O)Nc3cccc4c3C(c3ccccc3C)NC4=O)csc2c1` (centres unmarked) [Compound I-79] the value was 10 to 100 µM. On to `O=C1NC(c2cc(F)ccc2Cl)c2c(NC(=O)c3csc4ccccc34)cc(Br)cc21` (centres unmarked) [Compound I-626], for which the IC50 is at most 0.1 µM.

Take `O=C1N[C@@H](c2cc(F)ccc2Cl)c2c(N[C@H]3CCOc4ccccc43)cc(-c3cnn(C(F)F)c3)nc21` [Compound I-2082]: the IC50 lay in the range of 10 to 100 µM.

As for `O=C1N[C@@H](c2cc(F)ccc2Cl)c2c(NC(=O)N3C[C@](O)(C(F)(F)F)c4cc(F)ccc43)cc(Cl)cc21` (single isomer, unassigned) [Compound I-2511], the IC50 lay within 0.1 to 0.5 µM.

Molecule `O=C1NC(c2cc(F)ccc2Cl)c2c(NC(=O)C3CCOCC3)cc(-c3ccc4ncnn4c3)cc21` (centres unmarked) [Compound I-1821] returned an IC50 of 10 to 100 µM. For `CS(=O)(=O)c1cc(F)cc(C(=O)Nc2cc(Br)cc3c2C(c2cc(F)ccc2Cl)NC3=O)c1` (centres unmarked) [Compound I-912] the value was 10 to 100 µM; for `O=C(Nc1cccc2c1C(c1cc(F)ccc1Cl)NC2=O)c1ccc(O)c(C(F)(F)F)c1` (centres unmarked) [Compound I-2363], 10 to 100 µM. The same measure for `Cc1ccccc1C1NC(=O)c2nccc(NC(=O)N3CC(C)c4ccccc43)c21` (centres unmarked) [Compound I-249]: 0.1 to 0.5 µM; for `O=C1NC(c2cc(F)ccc2Cl)c2c(NC(=O)N3CCSC3)cccc21` (centres unmarked) [Compound I-2428]: 10 to 100 µM.

`CC(C)(O)c1cc(NC(=O)c2cc(F)cc(C(F)(F)F)c2)c2c(c1)C(=O)N[C@@H]2c1cc(F)ccc1Cl` [Compound I-190] yielded an IC50 of 1 to 10 µM. `O=C1N[C@H](c2cc(F)ccc2Cl)c2c(NC(=O)N3C[C@](O)(C(F)(F)F)c4cc(F)ccc43)cc(Cl)cc21` (single isomer, unassigned) [Compound I-2512] displayed an IC50 of 1 to 10 µM. The same measure for `O=C1N[C@@H](c2cc(F)ccc2Cl)c2c(NC(=O)N3C[C@H](O)c4cc(F)c(F)cc43)cccc21` (single isomer, unassigned) [Compound I-2291]: 1 to 10 µM; for `O=C(Nc1cc(-c2cn[nH]c2)nc2c1[C@@H](c1cc(F)ccc1Cl)NC2=O)c1cc(F)cc(C(F)(F)F)c1` [Compound I-193]: 1 to 10 µM. The same measure for `CC(=O)Cc1cc(NC(=O)c2cc(F)cc(C(F)(F)F)c2)c2c(c1)C(=O)NC2c1cc(F)ccc1C(F)F` (centres unmarked) [Compound I-620]: at most 0.1 µM. The same measure for `COc1ccc(C(=O)Nc2cc(Br)cc3c2C(c2cc(F)ccc2Cl)NC3=O)cc1` (centres unmarked) [Compound I-465]: 10 to 100 µM.

Molecule `Cn1cc(-c2cc(NC(=O)c3cc(F)cc(C(F)(F)F)c3)c3c(c2)C(=O)NC3c2cc(F)ccc2Cl)nn1` (centres unmarked) [Compound I-879] came in with an IC50 of at most 0.1 µM. For `O=C(Nc1cc(-c2ccc3ncnn3c2)cc2c1C(c1cc(F)ccc1Cl)NC2=O)C(=O)c1ccccc1` (centres unmarked) [Compound I-1730] the value was 1 to 10 µM; for `O=C(Nc1cccc2c1C(c1cc(F)ccc1Cl)NC2=O)c1cc(O)cc(C(F)(F)F)c1` (centres unmarked) [Compound I-448], 0.5 to 1 µM. The same measure for `O=C1N[C@@H](c2cc(F)ccc2Cl)c2c(NC(=O)[C@H]3CC(C(F)(F)F)C[C@@H](O)C3)cc(Br)cc21` (single isomer, unassigned) [Compound I-2275]: 10 to 100 µM. The same measure for `O=C(Nc1cc(Br)cc2c1[C@H](c1ccc(F)cc1Cl)NC2=O)c1cc(F)cc(C(F)(F)F)c1` [Compound I-755]: 0.1 to 0.5 µM; for `COCc1cc(NC(=O)c2cc(F)cc(C(F)(F)F)c2)c2c(c1)C(=O)NC2c1cc(F)ccc1Cl` (centres unmarked) [Compound I-611]: at most 0.1 µM. `N#Cc1cc(NC(=O)c2cc(F)cc(C(F)(F)F)c2)c2c(c1)C(=O)N[C@H]2c1cc(F)ccc1Cl` (single isomer, unassigned) [Compound I-771] came in with an IC50 of at most 0.1 µM.

Regarding `O=C(Nc1cc(Br)cc2c1C(c1cc(F)ccc1Cl)NC2=O)c1cccc(SC(F)(F)F)c1` (centres unmarked) [Compound I-1314], the IC50 fell in the range of 1 to 10 µM.

In turn, `O=C1NC(c2cc(F)ccc2Cl)c2c(NC(=O)C3CCc4ccccc4C3)cccc21` (mixture of isomers) [Compound I-2283] showed an IC50 of 10 to 100 µM. The same measure for `O=C1N[C@@H](c2cc(F)ccc2Cl)c2c(NC(=O)[C@H]3CCC[C@H](OC(F)(F)F)C3)cccc21` (single isomer, unassigned) [Compound I-2212]: 10 to 100 µM; for `O=C(Nc1ccnc2c1C(c1cc(F)ccc1Cl)NC2=O)c1cc(F)cc(C(F)(F)F)c1` (centres unmarked) [Compound I-305]: 0.1 to 0.5 µM.

Source of the values: patent publication US12581252B2, “Substituted pyrrolo[3,4-b]pyridines as PI3K-α inhibitors” (Relay Therapeutics, Inc., priority 2020, dated 2026).
